Patent publication US20160158179A1, “NANOEMULSION THERAPEUTIC COMPOSITIONS AND METHODS OF USING THE SAME” (THE REGENTS OF THE UNIVERSITY OF MICHIGAN, priority 2008, published 2016)
≈ marks a conversion by molar mass, not a printed value.

Assays:
[1] = test system: H. influenzae clinical isolates; experiment: MIC and MBC susceptibility assays (CLSI); format: cell-based, Haemophilus influenzae; conditions: Haemophilus influenzae; all H. influenzae strains of Table 6; control antibiotics
[2] = test system: H. influenzae clinical isolates; conditions: ATCC H. influenzae 49247 quality control isolate; acceptable QC range; cited from earlier work
Acinetobacter baumannii = experiment: MIC and MBC determination (CLSI, alamar blue); conditions: Acinetobacter
Pseudomonas aeruginosa = experiment: MIC and MBC determination (CLSI, alamar blue), CF isolates; conditions: Pseudomonas
Burkholderia cenocepacia = experiment: as above
[3] = test system: Stenotrophomonas maltophilia; experiment: as above; conditions: Stenotrophomonas
[4] = test system: methicillin-resistant Staphylococcus aureus (MRSA) clinical isolates; experiment: MIC and MBC susceptibility assays (CLSI); format: cell-based; conditions: for MIC50 (15): value at rank 15 of 29; for MIC50(26): value at rank 26 of 29
[5] = test system: Pseudomonas, Burkholderia, Acinetobacter and Stenotrophomonas; experiment: MIC and MBC determination (CLSI, alamar blue), all strains of Example 8
Stenotrophomonas strains = experiment: Checkerboard synergy study (FIC/FBC index); format: cell-based, Stenotrophomonas maltophilia; conditions: in combination with P4075EC+EDTA
Acinetobacter strains = experiment: Checkerboard synergy study (FIC/FBC index); format: cell-based, Acinetobacter baumannii; conditions: in combination with P4075EC+EDTA
Burkholderia strains = experiment: Checkerboard synergy study (FIC/FBC index); format: cell-based, Burkholderia cenocepacia; conditions: in combination with P4075EC+EDTA
[6] = share of 10 Stenotrophomonas strains with synergy
[7] = share of 10 Acinetobacter strains with synergy
[8] = share of 10 Burkholderia strains with synergy
[9] = MBC analysis table, silver nitrate column

CC1(C)S[C@@H]2[C@H](NC(=O)[C@H](N)c3ccccc3)C(=O)N2[C@H]1C(=O)O [Amp, ampicillin]
MIC 50 [1]: > 32 µg/mL | QC MIC range [2]: B (QC MIC range is 2-8) μg/ml

CO[C@@]1(NC(=O)Cc2cccs2)C(=O)N2C(C(=O)O)=C(COC(N)=O)CS[C@@H]21 [Cefoxitin]
MIC 50 (Acinetobacter baumannii): >256 µg/mL | MIC 90 (Acinetobacter baumannii): >256 µg/mL | MIC 50 (Pseudomonas aeruginosa): >256 µg/mL | MIC 90 (Pseudomonas aeruginosa): >256 µg/mL | MIC 90 (Burkholderia cenocepacia; Burkholderia): 256 µg/mL (≈ 599 µM) | MIC 50 [3]: >256 µg/mL | MIC 90 [3]: >256 µg/mL

CC(C)(O/N=C(\C(=O)N[C@@H]1C(=O)N2C(C(=O)[O-])=C(C[n+]3ccccc3)CS[C@H]12)c1csc(N)n1)C(=O)O [Ceftazidime]
MIC 50 (Acinetobacter baumannii): >32 µg/mL | MIC 90 (Acinetobacter baumannii): >32 µg/mL | MIC 90 (Burkholderia cenocepacia; Burkholderia): 16 µg/mL (≈ 29.3 µM) | MIC 50 (Burkholderia cenocepacia; Burkholderia cenocepacia): 8 µg/mL (≈ 14.6 µM) | MIC 90 (Burkholderia cenocepacia; Burkholderia cenocepacia): 16 µg/mL (≈ 29.3 µM) | MIC 50 [3]: >32 µg/mL | MIC 90 [3]: >32 µg/mL

CCC[C@@H]1C[C@@H](C(=O)N[C@@H]([C@H]2O[C@H](SC)[C@H](O)[C@@H](O)[C@H]2O)[C@H](C)Cl)N(C)C1 [Cli, clindamycin]
MIC 50 [1]: 16 µg/mL (≈ 37.6 µM)

C[C@H]1c2cccc(O)c2C(O)=C2C(=O)[C@]3(O)C(O)=C(C(N)=O)C(=O)[C@@H](N(C)C)[C@@H]3[C@@H](O)[C@@H]21 [Dox]
MIC50 (15) ([4]; MRSA clinical isolates): 0.25 µg/mL (≈ 0.563 µM)

CC[C@H]1OC(=O)[C@H](C)[C@@H](O[C@H]2C[C@@](C)(OC)[C@@H](O)[C@H](C)O2)[C@H](C)[C@@H](O[C@@H]2O[C@H](C)C[C@H](N(C)C)[C@H]2O)[C@](C)(O)C[C@@H](C)C(=O)[C@H](C)[C@@H](O)[C@]1(C)O [Eryth]
MIC50 (15) ([4]; MRSA clinical isolates): 64 µg/mL (≈ 87.2 µM)

C[C@@H](O)[C@H]1C(=O)N2C(C(=O)O)=C(SCCN=CN)C[C@H]12 [Imipenem]
MIC 50 [3]: >32 µg/mL | MIC 90 [5]: ≥ 2 µg/mL

C[C@H]1COc2c(N3CCN(C)CC3)c(F)cc3c(=O)c(C(=O)O)cn1c23 [Levo]
MIC50 (15) ([4]; MRSA clinical isolates): 8 µg/mL (≈ 22.1 µM)

C[C@H]1COc2c(N3CCN(C)CC3)c(F)cc3c(=O)c(C(=O)O)cn1c23 [Levofloxacin]
MIC 50 (Acinetobacter baumannii): 16 µg/mL (≈ 44.3 µM) | MIC 90 (Acinetobacter baumannii): >16 µg/mL | MIC 50 (Pseudomonas aeruginosa): 0.5 µg/mL (≈ 1.38 µM) | MIC 90 (Pseudomonas aeruginosa): 8 µg/mL (≈ 22.1 µM) | MIC 90 (Burkholderia cenocepacia; Burkholderia): 8 µg/mL (≈ 22.1 µM) | MIC 50 (Burkholderia cenocepacia; Burkholderia cenocepacia): 2 µg/mL (≈ 5.53 µM) | MIC 90 (Burkholderia cenocepacia; Burkholderia cenocepacia): 8 µg/mL (≈ 22.1 µM) | MIC 50 [3]: 2 µg/mL (≈ 5.53 µM) | MIC 90 [3]: 8 µg/mL (≈ 22.1 µM)

Cc1onc(-c2ccccc2)c1C(=O)N[C@@H]1C(=O)N2[C@@H]1SC(C)(C)[C@@H]2C(=O)O [Ox]
MIC50 (15) ([4]; MRSA clinical isolates): >16 µg/mL

CN(C)[C@@H]1C(O)=C(C(N)=O)C(=O)[C@@]2(O)C(O)=C3C(=O)c4c(O)cccc4[C@@](C)(O)[C@H]3C[C@@H]12 [Tetracycline]
MIC 50 [1]: 2 µg/mL (≈ 4.5 µM)

NC[C@H]1O[C@H](O[C@H]2[C@H](O)[C@@H](O[C@H]3O[C@H](CO)[C@@H](O)[C@H](N)[C@H]3O)[C@H](N)C[C@@H]2N)[C@H](N)C[C@@H]1O [Tobra]
FIC (Stenotrophomonas strains; isolate NB42): 0.14 | Synergy (FBC) (Stenotrophomonas strains; isolate NB42): indifferent | Synergy (FIC) (Stenotrophomonas strains; isolate NB42): yes | FIC (Stenotrophomonas strains; isolate NB43): 1.40 | Synergy (FBC) (Stenotrophomonas strains; isolate NB43): indifferent | Synergy (FIC) (Stenotrophomonas strains; isolate NB43): indifferent | FIC (Stenotrophomonas strains; isolate NB44): 1.5 | Synergy (FBC) (Stenotrophomonas strains; isolate NB44): indifferent | Synergy (FIC) (Stenotrophomonas strains; isolate NB44): indifferent | FBC (Stenotrophomonas strains; isolate NB45): 1.50 | FIC (Stenotrophomonas strains; isolate NB45): 0.97 | Synergy (FBC) (Stenotrophomonas strains; isolate NB45): indifferent | Synergy (FIC) (Stenotrophomonas strains; isolate NB45): indifferent | % FBC Synergy (Stenotrophomonas strains; [6]): 0% | % FIC Synergy (Stenotrophomonas strains; [6]): 20% | FBC (Acinetobacter strains; isolate NB31): 1.50 | FIC (Acinetobacter strains; isolate NB31): 0.98 | Synergy (FBC) (Acinetobacter strains; isolate NB31): no | Synergy (FIC) (Acinetobacter strains; isolate NB31): indifferent | FBC (Acinetobacter strains; isolate NB32): 1.79 | FIC (Acinetobacter strains; isolate NB32): 0.88 | Synergy (FBC) (Acinetobacter strains; isolate NB32): no | Synergy (FIC) (Acinetobacter strains; isolate NB32): indifferent | FBC (Acinetobacter strains; isolate NB33): 1.75 | FIC (Acinetobacter strains; isolate NB33): 1.27 | Synergy (FBC) (Acinetobacter strains; isolate NB33): no | Synergy (FIC) (Acinetobacter strains; isolate NB33): indifferent | FBC (Acinetobacter strains; isolate NB34): 0.24 | FIC (Acinetobacter strains; isolate NB34): 0.41 | Synergy (FBC) (Acinetobacter strains; isolate NB34): yes | Synergy (FIC) (Acinetobacter strains; isolate NB34): yes | FBC (Acinetobacter strains; isolate NB35): 1.44 | FIC (Acinetobacter strains; isolate NB35): 1.21 | Synergy (FBC) (Acinetobacter strains; isolate NB35): no | Synergy (FIC) (Acinetobacter strains; isolate NB35): indifferent | FIC (Acinetobacter strains; isolate NB36): 3.30 | Synergy (FBC) (Acinetobacter strains; isolate NB36): no | Synergy (FIC) (Acinetobacter strains; isolate NB36): indifferent | FBC (Acinetobacter strains; isolate NB37): 1.72 | FIC (Acinetobacter strains; isolate NB37): 0.75 | Synergy (FBC) (Acinetobacter strains; isolate NB37): no | Synergy (FIC) (Acinetobacter strains; isolate NB37): indifferent | FIC (Acinetobacter strains; isolate NB38): 1.05 | Synergy (FBC) (Acinetobacter strains; isolate NB38): no | Synergy (FIC) (Acinetobacter strains; isolate NB38): indifferent | FBC (Acinetobacter strains; isolate NB39): 3.52 | FIC (Acinetobacter strains; isolate NB39): 3.30 | Synergy (FBC) (Acinetobacter strains; isolate NB39): no | Synergy (FIC) (Acinetobacter strains; isolate NB39): indifferent | FBC (Acinetobacter strains; isolate NB40): 3.01 | FIC (Acinetobacter strains; isolate NB40): 3.01 | Synergy (FBC) (Acinetobacter strains; isolate NB40): no | Synergy (FIC) (Acinetobacter strains; isolate NB40): indifferent | % FBC Synergy (Acinetobacter strains; [7]): 10% | % FIC Synergy (Acinetobacter strains; [7]): 10% | FBC (Burkholderia strains; isolate NB21): 0.48 | FIC (Burkholderia strains; isolate NB21): 0.27 | Synergy (FBC) (Burkholderia strains; isolate NB21): yes | Synergy (FIC) (Burkholderia strains; isolate NB21): yes | FIC (Burkholderia strains; isolate NB22): 0.35 | Synergy (FBC) (Burkholderia strains; isolate NB22): indifferent | Synergy (FIC) (Burkholderia strains; isolate NB22): yes | Synergy (FBC) (Burkholderia strains; isolate NB23): indifferent | Synergy (FIC) (Burkholderia strains; isolate NB23): indifferent | Synergy (FBC) (Burkholderia strains; isolate NB24): indifferent | Synergy (FIC) (Burkholderia strains; isolate NB24): indifferent | FBC (Burkholderia strains; isolate NB25): 0.99 | Synergy (FBC) (Burkholderia strains; isolate NB25): indifferent | Synergy (FIC) (Burkholderia strains; isolate NB25): indifferent | FBC (Burkholderia strains; isolate NB26): 0.92 | FIC (Burkholderia strains; isolate NB26): 0.12 | Synergy (FBC) (Burkholderia strains; isolate NB26): indifferent | Synergy (FIC) (Burkholderia strains; isolate NB26): yes | Synergy (FBC) (Burkholderia strains; isolate NB27): indifferent | Synergy (FIC) (Burkholderia strains; isolate NB27): indifferent | FIC (Burkholderia strains; isolate NB28b): 0.54 | Synergy (FBC) (Burkholderia strains; isolate NB28b): indifferent | Synergy (FIC) (Burkholderia strains; isolate NB28b): yes | FBC (Burkholderia strains; isolate NB29): 0.07 | FIC (Burkholderia strains; isolate NB29): 0.32 | Synergy (FBC) (Burkholderia strains; isolate NB29): yes | Synergy (FIC) (Burkholderia strains; isolate NB29): yes | FBC (Burkholderia strains; isolate NB30): 0.54 | FIC (Burkholderia strains; isolate NB30): 0.27 | Synergy (FBC) (Burkholderia strains; isolate NB30): yes | Synergy (FIC) (Burkholderia strains; isolate NB30): yes | % FBC Synergy (Burkholderia strains; [8]): 30% | % FIC Synergy (Burkholderia strains; [8]): 50%

CN[C@H](CC(C)C)C(=O)N[C@H]1C(=O)N[C@@H](CC(N)=O)C(=O)N[C@H]2C(=O)N[C@H]3C(=O)N[C@H](C(=O)N[C@H](C(=O)O)c4cc(O)cc(O)c4-c4cc3ccc4O)[C@H](O)c3ccc(c(Cl)c3)Oc3cc2cc(c3O[C@@H]2O[C@H](CO)[C@@H](O)[C@H](O)[C@H]2O[C@H]2C[C@](C)(N)[C@H](O)[C@H](C)O2)Oc2ccc(cc2Cl)[C@H]1O [Vanco]
MIC50 (15) ([4]; MRSA clinical isolates): 1 µg/mL (≈ 0.69 µM)

CCC[C@@H]1C[C@@H](C(=O)N[C@@H]([C@H]2O[C@H](SC)[C@H](O)[C@@H](O)[C@H]2O)[C@H](C)Cl)N(C)C1 [clind]
MIC50 (15) ([4]; MRSA clinical isolates): >64 µg/mL

C[C@H]1c2cccc(O)c2C(O)=C2C(=O)[C@]3(O)C(O)=C(C(N)=O)C(=O)[C@@H](N(C)C)[C@@H]3[C@@H](O)[C@@H]21 [doxycyline, doxycycline]
MIC 90 ([4]; clinical isolates of MRSA): 4 µg/mL (≈ 9 µM)

O=[N+]([O-])[O-].[Ag+] [silver nitrate]
MIC50 (15) [4, 9]: 0.0025 µg/mL | MIC50(26) [4, 9]: >0.01 µg/mL | MIC 90 ([4]; clinical isolates of MRSA): 0.00063% | MIC50 (15) ([4]; silver nitrate column): 0.00031 µg/mL | MIC50(26) ([4]; silver nitrate column): 0.00063 µg/mL

CN[C@H](CC(C)C)C(=O)N[C@H]1C(=O)N[C@@H](CC(N)=O)C(=O)N[C@H]2C(=O)N[C@H]3C(=O)N[C@H](C(=O)N[C@H](C(=O)O)c4cc(O)cc(O)c4-c4cc3ccc4O)[C@H](O)c3ccc(c(Cl)c3)Oc3cc2cc(c3O[C@@H]2O[C@H](CO)[C@@H](O)[C@H](O)[C@H]2O[C@H]2C[C@](C)(N)[C@H](O)[C@H](C)O2)Oc2ccc(cc2Cl)[C@H]1O [vancomycin]
bactericidal activity (MBC90 compared to MIC90) ([4]; clinical isolates of MRSA): bactericidal
